Laboratory results published in PMC10482691, “LTP induction by structural rather than enzymatic functions of CaMKII” (Nature, 2023).
Several values for one entry are separate records, joined by “and”; a condition that tells them apart may be missing. Equal entries are not always repeated.

How the values were obtained:
CDK2/cyclinE(h) = CDK2/cyclinE(h) (Homo sapiens, UniProt P24941); assay: Kinase selectivity panel (residual activity at 1 μM); format: biochemical; details: inhibitor at 1 μM
KDR(h) = KDR(h) (Homo sapiens, UniProt P35968); assay: as above; format: biochemical; details: inhibitor at 1 μM; read-out: residual kinase activity in % of maximal activity
KDR(h), sequence (P35968 20-1356): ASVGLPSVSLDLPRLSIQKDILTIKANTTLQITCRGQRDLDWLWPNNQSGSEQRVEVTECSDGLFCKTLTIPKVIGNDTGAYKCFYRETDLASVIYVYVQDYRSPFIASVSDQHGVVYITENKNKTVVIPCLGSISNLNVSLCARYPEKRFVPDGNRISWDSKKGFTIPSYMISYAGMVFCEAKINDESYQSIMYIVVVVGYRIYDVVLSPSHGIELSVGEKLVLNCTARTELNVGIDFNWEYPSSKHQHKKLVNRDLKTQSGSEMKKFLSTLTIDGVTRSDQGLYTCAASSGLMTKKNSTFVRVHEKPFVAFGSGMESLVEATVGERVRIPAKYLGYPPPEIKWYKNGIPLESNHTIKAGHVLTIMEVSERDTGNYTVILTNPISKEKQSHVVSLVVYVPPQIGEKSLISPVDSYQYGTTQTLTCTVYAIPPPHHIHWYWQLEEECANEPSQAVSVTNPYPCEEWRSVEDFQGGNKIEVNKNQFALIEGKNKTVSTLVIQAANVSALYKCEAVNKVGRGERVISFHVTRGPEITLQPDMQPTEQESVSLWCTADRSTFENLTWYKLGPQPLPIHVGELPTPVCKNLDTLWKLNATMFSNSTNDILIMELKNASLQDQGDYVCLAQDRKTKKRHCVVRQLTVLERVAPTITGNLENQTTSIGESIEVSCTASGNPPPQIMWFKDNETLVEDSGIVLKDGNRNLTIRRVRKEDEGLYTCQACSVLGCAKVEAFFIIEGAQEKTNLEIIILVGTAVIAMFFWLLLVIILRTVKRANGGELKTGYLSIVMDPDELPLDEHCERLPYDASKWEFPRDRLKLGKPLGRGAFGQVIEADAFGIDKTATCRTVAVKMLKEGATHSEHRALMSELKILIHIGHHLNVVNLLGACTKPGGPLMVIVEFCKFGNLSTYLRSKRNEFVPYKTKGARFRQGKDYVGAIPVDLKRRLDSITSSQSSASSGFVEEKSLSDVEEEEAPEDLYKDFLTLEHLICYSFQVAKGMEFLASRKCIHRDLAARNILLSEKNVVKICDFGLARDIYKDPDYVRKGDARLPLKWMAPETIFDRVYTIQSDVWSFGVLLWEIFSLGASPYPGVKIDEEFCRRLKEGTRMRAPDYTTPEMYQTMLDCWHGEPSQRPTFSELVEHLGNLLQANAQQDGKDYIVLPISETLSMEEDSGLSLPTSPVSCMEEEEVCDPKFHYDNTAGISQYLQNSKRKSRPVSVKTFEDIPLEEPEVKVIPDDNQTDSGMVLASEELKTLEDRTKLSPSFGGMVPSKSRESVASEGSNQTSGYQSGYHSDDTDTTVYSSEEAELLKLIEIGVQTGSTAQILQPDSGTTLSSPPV

MAPK1(h) = MAPK1(h) (Homo sapiens, UniProt P27361); assay: as above; format: biochemical; details: inhibitor at 1 μM; read-out: residual kinase activity in % of maximal activity
MAPK1(h), sequence (P27361 whole entry): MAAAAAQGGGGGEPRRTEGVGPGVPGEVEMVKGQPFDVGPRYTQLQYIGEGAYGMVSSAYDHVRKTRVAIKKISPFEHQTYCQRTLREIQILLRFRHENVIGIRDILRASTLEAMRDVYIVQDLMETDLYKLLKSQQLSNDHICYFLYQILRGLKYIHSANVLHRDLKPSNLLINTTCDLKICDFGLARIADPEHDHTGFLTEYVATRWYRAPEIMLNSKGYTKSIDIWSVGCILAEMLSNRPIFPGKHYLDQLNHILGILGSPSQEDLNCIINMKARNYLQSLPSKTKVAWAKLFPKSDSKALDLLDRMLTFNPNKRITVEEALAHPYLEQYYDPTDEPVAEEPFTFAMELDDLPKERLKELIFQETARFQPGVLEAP

PAK2(h) = PAK2(h) (Homo sapiens, UniProt Q13177); assay: as above; format: biochemical; details: inhibitor at 1 μM; read-out: residual kinase activity in % of maximal activity
PAK2(h), sequence (Q13177 whole entry): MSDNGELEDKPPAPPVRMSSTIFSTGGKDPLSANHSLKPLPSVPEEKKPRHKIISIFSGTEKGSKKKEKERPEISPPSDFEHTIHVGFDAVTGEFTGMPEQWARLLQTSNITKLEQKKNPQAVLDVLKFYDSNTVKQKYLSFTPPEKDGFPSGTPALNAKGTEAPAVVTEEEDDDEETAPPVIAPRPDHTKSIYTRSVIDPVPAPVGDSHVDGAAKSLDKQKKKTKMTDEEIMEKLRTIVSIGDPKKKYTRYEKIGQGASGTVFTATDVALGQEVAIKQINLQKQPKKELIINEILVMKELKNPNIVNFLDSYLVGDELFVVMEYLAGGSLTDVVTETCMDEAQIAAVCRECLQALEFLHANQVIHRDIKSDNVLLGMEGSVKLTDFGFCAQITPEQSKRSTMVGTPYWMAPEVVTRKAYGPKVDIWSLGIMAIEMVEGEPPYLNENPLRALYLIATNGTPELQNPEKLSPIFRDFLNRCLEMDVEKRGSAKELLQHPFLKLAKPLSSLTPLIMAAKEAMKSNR

PKG1α(h) = PKG1α(h) (Homo sapiens, UniProt Q13976); assay: as above; format: biochemical; details: inhibitor at 1 μM; read-out: residual kinase activity in % of maximal activity
PKG1α(h), sequence (Q13976 whole entry): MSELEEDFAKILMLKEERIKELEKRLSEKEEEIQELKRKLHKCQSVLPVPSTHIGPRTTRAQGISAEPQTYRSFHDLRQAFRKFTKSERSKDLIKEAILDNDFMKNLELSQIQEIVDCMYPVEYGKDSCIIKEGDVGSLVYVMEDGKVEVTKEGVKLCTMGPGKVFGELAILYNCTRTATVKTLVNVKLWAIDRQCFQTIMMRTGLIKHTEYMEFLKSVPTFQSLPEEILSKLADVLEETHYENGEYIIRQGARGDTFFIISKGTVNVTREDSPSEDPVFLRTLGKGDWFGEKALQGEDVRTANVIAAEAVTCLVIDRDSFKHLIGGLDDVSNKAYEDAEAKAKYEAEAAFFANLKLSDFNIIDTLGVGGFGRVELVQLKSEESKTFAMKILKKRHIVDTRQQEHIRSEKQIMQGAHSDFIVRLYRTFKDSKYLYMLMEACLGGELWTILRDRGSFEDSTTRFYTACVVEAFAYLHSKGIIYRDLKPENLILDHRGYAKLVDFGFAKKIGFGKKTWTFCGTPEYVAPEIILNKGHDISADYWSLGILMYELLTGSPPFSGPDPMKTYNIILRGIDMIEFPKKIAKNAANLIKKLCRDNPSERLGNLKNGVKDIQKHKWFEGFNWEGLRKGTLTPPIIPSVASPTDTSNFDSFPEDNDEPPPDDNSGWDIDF

purified CaMKII = purified CaMKII (Rattus norvegicus, UniProt P11275); assay: In vitro kinase reaction: CaMKII phosphorylation of GST-2BC (GluN2B) S1303; format: biochemical
Protocol: CaMKII-mediated phosphorylation of GluA1 S831 or GluN2B S1303 was measured by in vitro kinase reaction with a purified GST–GluA1 C-terminal tail or GST-GluN2B C-terminal tail. Reactions contained 40 nM CaMKII, 1 μM GST–GluA1, 50 mM PIPES, pH 7.1, 2 mM CaCl2, 10 mM MgCl2, 1 μM calmodulin, 1–4 mM ATP and 1 μM okadaic acid. Negative controls were prepared without ATP. Reactions were done at 30 °C for 20 s; reactions were stopped by adding SDS loading buffer and incubation in a boiling water bath for 5 min. GST, phospho-S831, CaMKII, phospho-T286 or phospho-S1303 were detected in the samples by immunoblot analysis.
Extended Data Fig. 3 No difference in LTP in WT mice when CaMKII is inhibited by either 10 or 30 μM AS283. Data are presented as mean values +/− SEM. a, 2x HFS potentiates the CA3-CA1 Schaffer collateral pathway in WT mice when CaMKII enzymatic activity is inhibited by 10 or 30 μM AS283 (incubated for 15 min prior to HFS, and washed out 5 min after). b, Quantification of LTP in WT mice after 10 or 30 μM AS283 (n = 3,7 hippocampal slices; Mann-Whitney test). p = 0.3833. c, Representative immunoblot and quantification of CaMKII T286 phosphorylation in dissociated hippocampal cultures after cLTP and inhibition by 10 μM AS283 (n = 4 independent cell preparations; one-way ANOVA, Tukey’s multiple comparisons test). […]

[1] = target: GFP–CaMKII WT / mCh-GluN2B-c tail in HEK293 cells (Homo sapiens, UniProt Q9UQM7); assay: Ionomycin-induced colocalization of GFP–CaMKII WT and mCherry-2BC in HEK293 cells; format: cell-based; details: 10 μM AS283
Protocol: HEK cells were grown and transfected with expression vectors for GFP–CaMKII mutants and pDisplay-mCh-GluN2B-c tail (2BC) as previously described[24],[57]; the GluN2B construct used included an S1303A mutation to avoid potential complications by differential phosphorylation of this regulatory site[13],[27] in the different conditions with or without kinase inhibitors. GFP–CaMKII colocalization with GluN2B in response to a Ca^2+ stimulus induced by 10 μM ionomycin was monitored for 5–10 min at 32 °C in imaging buffer (0.87× Hanks Balanced Salt Solution, 25 mM HEPES, pH 7.4, 2 mM glucose, 2 mM CaCl2, 1 mM MgCl2) by fluorescence microscopy. Images were acquired on a Zeiss Axiovert 200M equipped with a climate control chamber using SlideBook software (Intelligent Imaging Innovations; v.6.0). Colocalization analysis was performed by calculating the Pearson’s correlation (correlation index) with ImageJ of pDisplay-mCh-2BC and GFP–CaMKII within the cytoplasm of HEK cells after background subtraction.

[2] = system: CA3–CA1 LTP in CaMKII T286A mutant slices; assay: LTP field recordings in hippocampal slices of T286A mice; format: cell-based, mouse; details: for fEPSP slope (normalized to baseline): individual slices, sheet 3c
Protocol: WT and mutant mouse hippocampal slices were prepared using P56–P70 mice. Isoflurane-anesthetized mice were rapidly decapitated, and the brain was dissected in an ice-cold high-sucrose solution containing 220 mM sucrose, 12 mM MgSO4, 10 mM glucose, 0.2 mM CaCl2, 0.5 mM KCl, 0.65 mM NaH2PO4, 13 mM NaHCO3 and 1.8 mM ascorbate. Transverse hippocampal slices (400 μm) were made using a tissue chopper (McIlwain) and transferred into 32 °C ACSF containing 124 mM NaCl, 3.5 mM KCl, 1.3 mM NaH2PO4, 26 mM NaHCO3, 10 mM glucose, 2 mM CaCl2, 1 mM MgSO4 and 1.8 mM ascorbate. All slices were recovered in 95% O2/5% CO2 for at least 1.5 h before experimentation.
For electrophysiological slice recording experiments, a glass micropipette (typical resistance of 0.4–0.8 megaohm when filled with ACSF) was used to record fEPSPs from the CA1 dendritic layer in response to stimulation of the Schaffer collaterals using a tungsten bipolar electrode. Slices were continually perfused with 30.5 °C ± 0.5 °C ACSF at a rate of 2.5 ± 0.5 ml min^−1 during recordings. Stimuli were delivered every 20 s, and three responses (1 min) were averaged for analysis. Data were analysed using WinLTP software with slope calculated as the initial rise from 10 to 60% of the response peak. Input–output curves were generated by increasing the stimulus intensity at a constant interval until a maximum response or population spike was noted to determine stimulation that elicits 50% of maximum slope. […] A stable baseline was acquired for a minimum of 20 min at 50% maximum slope before high-frequency stimulation (HFS; 2 × 100 Hz, 10 s interval) was applied. Responses were recorded for 40 or 60 min after HFS. Change in slope was calculated as a ratio of the average slope of the 20 min baseline (before HFS). Bar graphs of the percentage of fEPSP slope were calculated by averaging the last 10 min time points post-HFS and normalized to baseline.

[3] = system: GFP–CaMKII F89G in rat hippocampal neurons; assay: cLTP-induced CaMKII synaptic enrichment in dissociated hippocampal cultures (GFP–CaMKII F89G); format: cell-based; details: for CaMKII synaptic enrichment: GFP-CaMKII F89G, individual neurons, sheet 4e

NCCNc1cccc(-c2ccnc3[nH]c4ccccc4c23)c1 [AS283]
residual kinase activity in % of maximal activity (CDK2/cyclinE(h)): 41%
remaining activity at 1 µM (KDR(h)): 15%
remaining activity at 1 µM (MAPK1(h)): 102%
remaining activity at 1 µM (PAK2(h)): 76%
remaining activity at 1 µM (PKG1α(h)): 48%
GluN2B S1303 phosphorylation (immunoblot, normalized) (purified CaMKII; ATP + 10 μM AS283, 30 °C): 25.6775% and 36.949% and 34.6383% and 24.0932%
effect on CaMKII-mediated S1303 phosphorylation (purified CaMKII; WT GluN2B C terminus): inhibited
effect on CaMKII binding to GluN2B in colocalization assay [1]: did not inhibit
effect on LTP in slices from T286A mutant mice ([2]; AS283 10 μM): enabled LTP
LTP quantification (fEPSP slope normalized to baseline) ([2]; T286A mice, 10 μM AS283 during LTP induction): 173.525% and 142.167% and 174.092% and 153.624%
fEPSP slope (normalized to baseline) ([2]; Time (min) 1.33333): 226.574 and 276.052 and 180.946 and 150.731
fEPSP slope (normalized to baseline) ([2]; Time (min) 2.33333): 192.365 and 206.349 and 186.037 and 149.446
fEPSP slope (normalized to baseline) ([2]; Time (min) 3.33333): 182.945 and 175.983 and 184.471 and 147.196
fEPSP slope (normalized to baseline) ([2]; Time (min) 4.33333): 177.987 and 162.181 and 176.442 and 135.626
fEPSP slope (normalized to baseline) ([2]; Time (min) 5.33333): 158.156 and 152.519 and 169.979 and 137.876
fEPSP slope (normalized to baseline) ([2]; Time (min) 6.33333): 150.223 and 154.589 and 168.609 and 152.017
fEPSP slope (normalized to baseline) ([2]; Time (min) 7.33333): 124.442 and 151.829 and 171.154 and 133.698
fEPSP slope (normalized to baseline) ([2]; Time (min) 8.33333): 102.628 and 144.237 and 169 and 134.983
fEPSP slope (normalized to baseline) ([2]; Time (min) 9.33333): 104.115 and 145.618 and 173.309 and 134.983
fEPSP slope (normalized to baseline) ([2]; Time (min) 10.3333): 122.955 and 140.787 and 178.596 and 135.626
fEPSP slope (normalized to baseline) ([2]; Time (min) 11.3333): 100.149 and 132.505 and 172.721 and 133.055
fEPSP slope (normalized to baseline) ([2]; Time (min) 12.3333): 126.921 and 132.505 and 175.267 and 134.662
fEPSP slope (normalized to baseline) ([2]; Time (min) -1): 91.7204 and 91.0973 and 91.6479 and 102.523
fEPSP slope (normalized to baseline) ([2]; Time (min) -2): 90.7288 and 96.6184 and 93.802 and 102.844
fEPSP slope (normalized to baseline) ([2]; Time (min) -3): 103.619 and 106.97 and 89.298 and 98.6662
fEPSP slope (normalized to baseline) ([2]; Time (min) -4): 104.115 and 88.3368 and 91.2562 and 100.916
fEPSP slope (normalized to baseline) ([2]; Time (min) -5): 91.7204 and 91.0973 and 97.7186 and 101.237
fEPSP slope (normalized to baseline) ([2]; Time (min) -6): 96.1825 and 96.6184 and 96.7395 and 100.273
fEPSP slope (normalized to baseline) ([2]; Time (min) -7): 87.2583 and 94.548 and 98.5019 and 100.916
fEPSP slope (normalized to baseline) ([2]; Time (min) -8): 96.1825 and 95.9282 and 99.6769 and 97.7021
fEPSP slope (normalized to baseline) ([2]; Time (min) -9): 98.6614 and 96.6184 and 102.614 and 101.88
fEPSP slope (normalized to baseline) ([2]; Time (min) -10): 90.7288 and 91.0973 and 99.0894 and 97.0593
fEPSP slope (normalized to baseline) ([2]; Time (min) -11): 103.124 and 102.139 and 101.439 and 98.9876
fEPSP slope (normalized to baseline) ([2]; Time (min) -12): 109.073 and 120.083 and 100.656 and 94.4882
fEPSP slope (normalized to baseline) ([2]; Time (min) -13): 105.602 and 105.59 and 103.398 and 96.4165

CC(C)(C)n1nc(Cc2cccc3ccccc23)c2c(N)ncnc21 [NM-PP1]
effect on impaired LTP-induced synaptic CaMKII localization ([3]; F89G mutant, 10 μM NM-PP1): rescued
CaMKII synaptic enrichment ([3]; NMPP1, before cLTP): 1.457 and 2.177 and 1.336 and 1.561 and 0.9177 and 1.552
CaMKII synaptic enrichment ([3]; after cLTP in NMPP1): 2.238 and 2.292 and 2.101 and 2.038 and 1.685 and 2.186
